{"source": "ChEMBL document CHEMBL5150003", "about": "“Why All the Fury over Furin?” (J Med Chem, 2022)", "key": {"Coagulation factor X": {"target": "Coagulation factor X (Homo sapiens, UniProt P00742)", "sequence (P00742 41-179 limits assumed)": "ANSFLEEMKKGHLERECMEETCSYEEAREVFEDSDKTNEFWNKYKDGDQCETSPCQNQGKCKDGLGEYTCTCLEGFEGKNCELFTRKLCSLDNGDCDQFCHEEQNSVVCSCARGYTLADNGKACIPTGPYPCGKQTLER", "sequence (P00742 235-488 limits assumed)": "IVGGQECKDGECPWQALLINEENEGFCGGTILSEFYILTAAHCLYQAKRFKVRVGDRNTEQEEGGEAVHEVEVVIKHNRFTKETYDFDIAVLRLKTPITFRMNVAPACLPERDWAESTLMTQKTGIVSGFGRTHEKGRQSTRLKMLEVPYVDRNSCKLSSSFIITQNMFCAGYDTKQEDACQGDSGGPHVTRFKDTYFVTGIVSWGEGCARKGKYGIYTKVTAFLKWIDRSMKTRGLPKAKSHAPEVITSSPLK", "assay": "Inhibition of human fXa using Mes-DArg-Pro-Arg-AMC as substrate and measured by fluorescence assay"}, "Furin [1]": {"target": "T1, Furin (Homo sapiens, UniProt P09958)", "T1 sequence (P09958 whole entry)": "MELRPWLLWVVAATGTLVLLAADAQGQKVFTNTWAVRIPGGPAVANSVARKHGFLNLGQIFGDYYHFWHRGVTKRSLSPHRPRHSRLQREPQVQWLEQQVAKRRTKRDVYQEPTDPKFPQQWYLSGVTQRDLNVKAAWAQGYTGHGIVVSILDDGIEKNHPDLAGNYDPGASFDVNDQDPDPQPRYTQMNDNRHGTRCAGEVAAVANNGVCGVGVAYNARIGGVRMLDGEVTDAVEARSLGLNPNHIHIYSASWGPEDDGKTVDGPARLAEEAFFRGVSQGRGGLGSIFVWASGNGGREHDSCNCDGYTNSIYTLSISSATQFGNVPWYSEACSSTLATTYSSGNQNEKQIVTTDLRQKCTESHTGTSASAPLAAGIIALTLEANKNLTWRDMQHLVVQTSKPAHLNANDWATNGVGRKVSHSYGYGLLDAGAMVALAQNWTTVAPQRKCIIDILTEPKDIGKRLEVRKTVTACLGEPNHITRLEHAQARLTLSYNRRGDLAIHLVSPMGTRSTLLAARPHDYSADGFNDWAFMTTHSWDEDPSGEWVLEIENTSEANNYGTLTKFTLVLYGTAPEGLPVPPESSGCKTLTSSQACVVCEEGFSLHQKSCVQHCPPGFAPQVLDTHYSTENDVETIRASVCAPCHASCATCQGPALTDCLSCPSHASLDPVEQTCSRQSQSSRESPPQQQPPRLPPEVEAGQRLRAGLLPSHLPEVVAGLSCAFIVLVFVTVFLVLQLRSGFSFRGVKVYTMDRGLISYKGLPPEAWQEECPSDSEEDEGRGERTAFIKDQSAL", "assay": "Inhibition of recombinant human furin using Phac-Arg-Val-Arg-Arg-AMC as substrate incubated for 30 mins and measured by microplate reader method"}, "Plasminogen": {"target": "Plasminogen (Homo sapiens, UniProt P00747)", "sequence (P00747 97-580 limits assumed)": "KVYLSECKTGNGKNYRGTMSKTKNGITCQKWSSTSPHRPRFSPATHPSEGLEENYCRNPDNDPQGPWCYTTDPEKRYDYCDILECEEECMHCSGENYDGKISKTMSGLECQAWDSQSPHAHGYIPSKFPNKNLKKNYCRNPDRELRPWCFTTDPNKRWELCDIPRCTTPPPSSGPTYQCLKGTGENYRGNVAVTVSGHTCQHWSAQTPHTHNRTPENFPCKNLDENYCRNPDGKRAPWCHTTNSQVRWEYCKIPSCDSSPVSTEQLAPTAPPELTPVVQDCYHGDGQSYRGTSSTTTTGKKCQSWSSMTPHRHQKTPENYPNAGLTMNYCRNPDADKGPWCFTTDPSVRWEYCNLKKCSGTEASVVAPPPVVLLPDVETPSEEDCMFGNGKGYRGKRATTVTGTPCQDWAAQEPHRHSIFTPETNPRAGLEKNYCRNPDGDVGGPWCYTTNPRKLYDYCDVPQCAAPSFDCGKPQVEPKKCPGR", "sequence (P00747 581-810 limits assumed)": "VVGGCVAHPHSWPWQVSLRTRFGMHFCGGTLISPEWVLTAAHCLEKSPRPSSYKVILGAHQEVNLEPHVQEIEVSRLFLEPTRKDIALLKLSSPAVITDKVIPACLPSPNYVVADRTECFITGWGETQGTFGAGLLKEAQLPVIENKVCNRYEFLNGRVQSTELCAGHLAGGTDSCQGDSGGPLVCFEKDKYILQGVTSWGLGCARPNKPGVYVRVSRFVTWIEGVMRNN", "assay": "Inhibition of human plasmin using Mes-DArg-Phe-Arg-AMC as substrate and measured by fluorescence assay"}, "Prothrombin": {"target": "Prothrombin (Bos taurus, UniProt P00735)", "assay": "Inhibition of bovine thrombin using Tos-Gly-Pro-Arg-AMC as substrate and measured by fluorescence assay"}, "[2]": {"assay": "Inhibition of porcine trypsin using Mes-DArg-Gly-Arg-AMC as substrate and measured by fluorescence assay", "design": "species or system Sus scrofa"}, "Furin [3]": {"target": "T1, Furin", "assay": "Inhibition of soluble human furin using boc-RVRR-MCA as substrate incubated for 45 mins and measured by fluorescence assay"}, "Furin [4]": {"target": "T1, Furin", "assay": "Inhibition of furin (unknown origin)"}, "[5]": {"assay": "Inhibition of human papilloma virus-11 replication in HEK293 cells measured by transient DNA replication assay", "type": "functional, cell-based", "details": "human papillomavirus 11, HEK293"}, "Furin [6]": {"target": "T1, Furin", "assay": "Inhibition of Tev-FLAG-His-tagged furin (108 to 574 residues) (unknown origin) using FAM-QRVRRAVGIDK-TAMRA as substrate and measured after 2 hrs"}, "Mus musculus [7]": {"system": "Mus musculus", "assay": "Antifibrotic activity against bleomycin-induced mouse lung fibrosis model assessed as inhibition of hydroxyproline content in lung at 10 mg/kg, po administered once daily", "type": "functional"}, "Furin [8]": {"target": "T1, Furin", "assay": "Inhibition of furin in human U2OS cells measured after 24 hrs by fluorescence assay", "type": "cell-based"}, "Mus musculus [9]": {"system": "Mus musculus", "assay": "Antifibrotic activity against bleomycin-induced mouse lung fibrosis model assessed as inhibition of TGF-beta secretion in lung at 10 mg/kg, po administered once daily", "type": "functional"}, "[10]": {"target": "T2, Proprotein convertase subtilisin/kexin type 6 (Homo sapiens, UniProt P29122)", "T2 sequence (P29122 whole entry)": "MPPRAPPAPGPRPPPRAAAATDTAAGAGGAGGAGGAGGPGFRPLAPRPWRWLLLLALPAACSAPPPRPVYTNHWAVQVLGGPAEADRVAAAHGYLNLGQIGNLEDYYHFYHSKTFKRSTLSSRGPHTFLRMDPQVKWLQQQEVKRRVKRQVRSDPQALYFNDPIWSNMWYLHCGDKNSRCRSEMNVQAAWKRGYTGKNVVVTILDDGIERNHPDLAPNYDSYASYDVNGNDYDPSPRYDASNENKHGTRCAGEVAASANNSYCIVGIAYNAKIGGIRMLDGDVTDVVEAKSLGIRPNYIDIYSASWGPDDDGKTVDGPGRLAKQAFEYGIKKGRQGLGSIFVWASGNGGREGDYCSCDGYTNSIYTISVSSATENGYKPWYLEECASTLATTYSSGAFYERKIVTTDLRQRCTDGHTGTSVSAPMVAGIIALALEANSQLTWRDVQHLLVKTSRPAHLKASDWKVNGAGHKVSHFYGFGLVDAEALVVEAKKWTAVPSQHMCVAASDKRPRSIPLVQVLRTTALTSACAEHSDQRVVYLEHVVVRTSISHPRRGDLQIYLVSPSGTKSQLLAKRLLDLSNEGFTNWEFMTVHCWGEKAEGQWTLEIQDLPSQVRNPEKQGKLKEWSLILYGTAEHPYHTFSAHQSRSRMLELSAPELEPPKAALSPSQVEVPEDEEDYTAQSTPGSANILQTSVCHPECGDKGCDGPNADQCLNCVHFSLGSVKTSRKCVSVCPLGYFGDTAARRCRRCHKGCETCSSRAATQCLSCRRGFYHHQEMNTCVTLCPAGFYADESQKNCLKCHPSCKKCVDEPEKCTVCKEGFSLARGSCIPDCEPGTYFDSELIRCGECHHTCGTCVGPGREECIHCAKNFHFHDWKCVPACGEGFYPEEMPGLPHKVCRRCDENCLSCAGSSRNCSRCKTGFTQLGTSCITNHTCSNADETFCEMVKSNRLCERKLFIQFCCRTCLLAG", "assay": "Inhibition of PACE4 (unknown origin)"}}, "note": "Peptide text beside a SMILES is read from it.", "data": [{"smiles": "CC(C)(C)[C@H](NC(=O)[C@H](CCCONC(=N)N)NC(=O)Cc1ccc(CNC(=N)N)cc1)C(=O)N[C@@H](CCCONC(=N)N)C(=O)NCc1ccc(C(=N)N)cc1", "values": [{"measurement": "Ki", "setting": "Coagulation factor X", "result": "> 3000", "unit": "nM"}, {"measurement": "Ki", "setting": "Furin [1]", "result": 0.0101, "unit": "nM"}, {"measurement": "Ki", "setting": "Plasminogen", "result": "> 3000", "unit": "nM"}, {"measurement": "Ki", "setting": "Prothrombin", "result": "> 3000", "unit": "nM"}, {"measurement": "Ki", "setting": "[2]", "result": 690, "unit": "nM"}]}, {"smiles": "N=C(N)N/N=C/c1ccccc1OCc1ccc(Cl)cc1", "values": [{"measurement": "Ki", "setting": "Furin [3]", "result": 25300, "unit": "nM"}]}, {"smiles": "CSc1oc(-c2ccc(Cl)cc2Cl)nc1[P+](c1ccccc1)(c1ccccc1)c1ccccc1", "values": [{"measurement": "Ki", "setting": "Furin [4]", "result": 1570, "unit": "nM"}, {"measurement": "IC50", "setting": "[5]", "result": 1700, "unit": "nM"}]}, {"smiles": "CC(CC1CCN(Cc2cc(Oc3cnc(N4CCN(C)CC4)nc3)nc(-c3cc(Cl)cc(Cl)c3)c2)CC1)C(=O)O", "note": "(centres undefined)", "values": [{"measurement": "IC50", "setting": "Furin [6]", "result": 0.794, "unit": "nM"}, {"measurement": "inhibition in vivo at 10 mg/kg", "setting": "Mus musculus [7]", "result": 54, "unit": "%"}, {"measurement": "pXC50", "setting": "Furin [8]", "result": 8}, {"measurement": "inhibition in vivo at 10 mg/kg", "setting": "Mus musculus [9]", "result": 81, "unit": "%"}]}, {"smiles": "CC(=O)N[C@@H](CC(C)C)C(=O)N[C@@H](CC(C)C)C(=O)N[C@@H](CC(C)C)C(=O)N[C@@H](CC(C)C)C(=O)N[C@@H](CCCNC(=N)N)C(=O)N[C@H](C(=O)N[C@@H](CCCCN)C(=O)N[C@@H](CCCNC(=N)N)C(N)=O)C(C)C", "note": "(Ac-LLLLRVKR-NH2)", "values": [{"measurement": "IC50", "setting": "Furin [4]", "result": 20, "unit": "nM"}, {"measurement": "IC50", "setting": "[10]", "result": 30, "unit": "nM"}]}]}
